Here are results for 53 compounds from patent US7429660B2, “ATM inhibitors” (Kudos Pharmaceuticals Limited, priority 2003, dated 2008).

SMILES strings stand for the structures. Where only a bound is given, the exact number is not on record here.

The target in this test is T1, ATM protein immunoprecipitated from HeLa cell nuclear extract (Homo sapiens, UniProt Q13315).
T1 construct: ATM protein was immunoprecipitated from HeLa cell nuclear extract; endogenous in cells; host or cells: HeLa cell nuclear extract (immunoprecipitated with rabbit polyclonal anti-ATM antiserum)
T1 sequence (Q13315 whole entry): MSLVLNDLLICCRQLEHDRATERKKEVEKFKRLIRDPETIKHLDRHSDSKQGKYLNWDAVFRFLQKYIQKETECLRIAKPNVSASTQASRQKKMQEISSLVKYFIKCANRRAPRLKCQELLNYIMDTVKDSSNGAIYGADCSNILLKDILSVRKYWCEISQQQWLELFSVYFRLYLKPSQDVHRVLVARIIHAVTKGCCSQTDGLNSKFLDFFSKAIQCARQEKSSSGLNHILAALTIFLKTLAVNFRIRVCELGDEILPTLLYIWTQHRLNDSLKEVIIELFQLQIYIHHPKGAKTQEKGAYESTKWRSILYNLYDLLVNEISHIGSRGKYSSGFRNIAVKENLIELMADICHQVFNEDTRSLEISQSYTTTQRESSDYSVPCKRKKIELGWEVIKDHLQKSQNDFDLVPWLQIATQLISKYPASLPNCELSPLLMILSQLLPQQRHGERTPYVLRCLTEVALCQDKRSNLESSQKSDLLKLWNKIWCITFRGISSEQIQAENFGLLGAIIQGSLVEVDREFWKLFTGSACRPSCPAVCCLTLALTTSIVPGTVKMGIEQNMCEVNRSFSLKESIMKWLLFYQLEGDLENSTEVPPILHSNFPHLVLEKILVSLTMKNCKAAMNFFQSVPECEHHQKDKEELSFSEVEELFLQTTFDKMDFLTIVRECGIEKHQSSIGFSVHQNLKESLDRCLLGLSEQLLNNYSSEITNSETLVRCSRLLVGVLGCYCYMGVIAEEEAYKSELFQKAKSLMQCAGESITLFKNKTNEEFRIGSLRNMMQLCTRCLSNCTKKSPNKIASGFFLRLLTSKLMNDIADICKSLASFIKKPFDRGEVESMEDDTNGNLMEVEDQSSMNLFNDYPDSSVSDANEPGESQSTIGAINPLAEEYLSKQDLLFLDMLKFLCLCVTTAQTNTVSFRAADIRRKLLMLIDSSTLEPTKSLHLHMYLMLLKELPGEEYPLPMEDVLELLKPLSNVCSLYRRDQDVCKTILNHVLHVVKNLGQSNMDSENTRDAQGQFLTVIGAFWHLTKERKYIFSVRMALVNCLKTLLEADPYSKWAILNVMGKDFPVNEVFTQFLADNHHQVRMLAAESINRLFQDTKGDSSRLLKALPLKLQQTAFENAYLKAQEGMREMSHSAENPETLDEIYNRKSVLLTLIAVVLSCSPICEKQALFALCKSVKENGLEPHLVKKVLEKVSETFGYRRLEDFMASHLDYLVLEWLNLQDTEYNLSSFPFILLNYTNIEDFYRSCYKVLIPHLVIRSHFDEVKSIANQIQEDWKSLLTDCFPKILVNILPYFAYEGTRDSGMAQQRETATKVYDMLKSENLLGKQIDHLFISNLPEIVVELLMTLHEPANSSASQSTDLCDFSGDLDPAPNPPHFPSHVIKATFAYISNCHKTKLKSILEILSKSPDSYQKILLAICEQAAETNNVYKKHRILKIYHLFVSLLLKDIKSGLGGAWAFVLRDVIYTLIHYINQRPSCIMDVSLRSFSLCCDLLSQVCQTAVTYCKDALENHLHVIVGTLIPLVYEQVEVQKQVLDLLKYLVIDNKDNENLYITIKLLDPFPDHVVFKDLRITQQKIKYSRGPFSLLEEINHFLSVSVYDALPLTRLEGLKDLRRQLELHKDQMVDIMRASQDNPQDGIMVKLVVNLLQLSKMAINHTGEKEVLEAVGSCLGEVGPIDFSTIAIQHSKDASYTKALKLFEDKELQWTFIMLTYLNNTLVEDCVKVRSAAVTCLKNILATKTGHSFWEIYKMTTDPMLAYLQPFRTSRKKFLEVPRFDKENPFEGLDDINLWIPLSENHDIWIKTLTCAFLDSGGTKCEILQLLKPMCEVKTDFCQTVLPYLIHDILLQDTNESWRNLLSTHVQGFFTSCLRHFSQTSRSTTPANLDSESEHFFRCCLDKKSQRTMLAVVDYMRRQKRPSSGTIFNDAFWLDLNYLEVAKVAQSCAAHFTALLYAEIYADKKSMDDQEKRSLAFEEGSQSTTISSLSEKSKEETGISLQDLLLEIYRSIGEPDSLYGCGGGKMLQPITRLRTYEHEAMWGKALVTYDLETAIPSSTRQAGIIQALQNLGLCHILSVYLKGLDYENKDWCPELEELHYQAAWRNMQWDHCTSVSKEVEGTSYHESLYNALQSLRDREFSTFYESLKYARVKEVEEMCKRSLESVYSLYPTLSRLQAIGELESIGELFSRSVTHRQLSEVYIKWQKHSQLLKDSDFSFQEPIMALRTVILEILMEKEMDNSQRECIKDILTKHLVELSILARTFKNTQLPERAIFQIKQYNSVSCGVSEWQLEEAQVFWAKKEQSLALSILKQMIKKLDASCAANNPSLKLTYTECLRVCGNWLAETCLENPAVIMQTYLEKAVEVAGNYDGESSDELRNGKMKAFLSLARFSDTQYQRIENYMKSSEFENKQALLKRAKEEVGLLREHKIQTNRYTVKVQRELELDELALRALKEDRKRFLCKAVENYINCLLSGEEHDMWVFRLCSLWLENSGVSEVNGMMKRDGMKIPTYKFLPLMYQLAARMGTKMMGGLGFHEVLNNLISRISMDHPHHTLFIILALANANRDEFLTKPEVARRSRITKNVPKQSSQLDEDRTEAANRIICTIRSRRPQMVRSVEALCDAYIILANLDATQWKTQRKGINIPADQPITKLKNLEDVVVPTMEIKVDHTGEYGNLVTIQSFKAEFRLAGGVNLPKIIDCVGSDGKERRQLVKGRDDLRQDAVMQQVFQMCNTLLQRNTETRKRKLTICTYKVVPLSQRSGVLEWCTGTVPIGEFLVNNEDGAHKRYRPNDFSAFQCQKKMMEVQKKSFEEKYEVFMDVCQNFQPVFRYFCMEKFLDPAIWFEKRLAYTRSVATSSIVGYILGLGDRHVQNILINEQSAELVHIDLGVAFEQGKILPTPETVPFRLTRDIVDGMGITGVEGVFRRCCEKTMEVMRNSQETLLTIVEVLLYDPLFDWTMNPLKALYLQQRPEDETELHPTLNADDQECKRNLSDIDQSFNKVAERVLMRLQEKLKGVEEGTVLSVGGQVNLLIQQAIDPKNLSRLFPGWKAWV
In words: In vitro ATM inhibition assay (phosphorylation of GSTp53N66 on serine 15, chemiluminescent detection). Also: tested normally from 100 µM down to 0.1 nM. The class given is biochemical. Particulars: read-out: IC50 values (the concentration at which 50% of the enzyme activity is inhibited), ATM inhibition. The procedure:
In order to assess the inhibitory action of the compounds against ATM in vitro, the following assay was used to determine IC50 values. ATM protein was immunoprecipitated from HeLa cell nuclear extract using rabbit polyclonal anti-sera raised to the C-terminal ˜500 amino-acid residues of the human ATM protein. […] 10 μl of immunoprecipitated ATM in Buffer C (50 mM Hepes, pH 7.4, 6 mM MgCl2, 150 mM NaCl, 0.1 mM sodium orthovanadate, 4 mM MnCl2, 0.1 mM dithiothreitol, 10% glycerol) was added to 32.5 μl of buffer C containing 1 μg of the ATM substrate GSTp53N66 in a V-bottomed 96 well polypropylene plate. The GSTp53N66 substrate is the amino terminal 66 amino acid residues of human wild type p53 fused to glutathione S-transferase. […] Varying concentrations of inhibitor were then added. […] After 10 minutes of incubation at 37° C., the reactions were initiated by the addition of 5 μl of 500 μM Na-ATP. After 1 hour with shaking at 37° C., 150 μl of phosphate buffered saline (PBS) was added to the reaction and the plate centrifuged at 1500 rpm for 10 minutes. 5 μl of the reaction was then transferred to a 96 well opaque white plate containing 45 μl of PBS to allow the GSTp53N66 substrate to bind to the plate wells. The plate was covered and incubated at room temperature for 1 hour with shaking before discarding the contents. The plate wells were washed twice by the addition of PBS prior to the addition of 3% (w/v) bovine serum albumin (BSA) in PBS. The plate was incubated at room temperature for 1 hour with shaking before discarding the contents and washing twice with PBS. To the wells, 50 μl of a 1:10,000 dilution of primary phosphoserine-15 antibody (Cell Signaling Technology, #9284L) in 3% BSA/PBS was added to detect the phosphorylation event on the serine 15 residue of p53 elicited by the ATM kinase. […] The wells were then washed four times with PBS before the addition of chemiluminescence reagent (NEN Renaissance, NEL105). The plate was then shaken briefly, covered with a transparent plate seal and transferred to a TopCount NXT for chemiluminescent counting. Counts per second, following a one second counting time, were recorded for each reaction.
The enzyme activity for each compound is then calculated using the following equation:
[formula] Results In vitro ATM assays
Compounds were assayed for ATM inhibition activity using the method described above. […] These are determined over a range of different concentrations, normally from 100 μM down to 0.1 nM. Such IC50 values are used as comparative values to identify increased compound potencies.

Regarding `CN1CCN(C(=O)c2ccc3c(c2)Sc2cccc(-c4cc(=O)cc(N5CCOCC5)o4)c2S3)CC1` [Compound 6], the IC50 is under 200 nM.

Turning to `O=C(c1ccc2c(c1)Sc1cccc(-c3cc(=O)cc(N4CCOCC4)o3)c1S2)N1CCN(c2ccccn2)CC1` [Compound 8], the IC50 is under 200 nM.

Take `O=C(c1ccc2c(c1)Sc1cccc(-c3cc(=O)cc(N4CCOCC4)o3)c1S2)N1CCN(c2ccncc2)CC1` [Compound 9]: the IC50 was under 200 nM.

Take `CC(=O)N1CCN(C(=O)c2ccc3c(c2)Sc2cccc(-c4cc(=O)cc(N5CCOCC5)o4)c2S3)CC1` [Compound 11]: the IC50 is under 200 nM.

With `O=C(c1ccc2c(c1)Sc1cccc(-c3cc(=O)cc(N4CCOCC4)o3)c1S2)N1CCN(c2ncccn2)CC1` [Compound 13], the IC50 is under 200 nM.

As to `CC(C)NC(=O)CN1CCN(C(=O)c2ccc3c(c2)Sc2cccc(-c4cc(=O)cc(N5CCOCC5)o4)c2S3)CC1` [Compound 14], the IC50 is under 200 nM.

As to `O=C(c1ccc2c(c1)Sc1cccc(-c3cc(=O)cc(N4CCOCC4)o3)c1S2)N1CCN(c2ccccc2F)CC1` [Compound 15], the IC50 was under 200 nM.

On to `CC(C)(C)OC(=O)N1CCN(C(=O)c2ccc3c(c2)Sc2cccc(-c4cc(=O)cc(N5CCOCC5)o4)c2S3)CC1` [Compound 16], for which the IC50 was under 200 nM.

Consider `COCCN1CCN(C(=O)c2ccc3c(c2)Sc2cccc(-c4cc(=O)cc(N5CCOCC5)o4)c2S3)CC1` [Compound 17], for which the IC50 was under 200 nM.

On to `O=C(c1ccc2c(c1)Sc1cccc(-c3cc(=O)cc(N4CCOCC4)o3)c1S2)N1CCN(C(=O)c2ccco2)CC1` [Compound 18], for which the IC50 was under 200 nM.

On to `O=C(c1ccc2c(c1)Sc1cccc(-c3cc(=O)cc(N4CCOCC4)o3)c1S2)N1CCNCC1` [Compound 19], for which the IC50 is under 200 nM.

Take `Nc1ccc2c(c1)Sc1cccc(-c3cc(=O)cc(N4CCOCC4)o3)c1S2` [Compound 21, 2-(7-Amino-thianthren-1-yl)-6-morpholin-4-yl-pyran-4-one]: the IC50 is under 200 nM.

Consider `CC(=O)Nc1ccc2c(c1)Sc1cccc(-c3cc(=O)cc(N4CCOCC4)o3)c1S2` [Compound 22], for which the IC50 is under 200 nM.

Turning to `O=C(Nc1ccc2c(c1)Sc1cccc(-c3cc(=O)cc(N4CCOCC4)o3)c1S2)C1CC1` [Compound 24], the IC50 was under 200 nM.

For the compound `O=C(Nc1ccc2c(c1)Sc1cccc(-c3cc(=O)cc(N4CCOCC4)o3)c1S2)c1ccc2c(c1)OCO2` [Compound 25], the IC50 is under 200 nM.

`COC(=O)CCCC(=O)Nc1ccc2c(c1)Sc1cccc(-c3cc(=O)cc(N4CCOCC4)o3)c1S2` [Compound 26]: the IC50 is under 200 nM.

In the case of `N#Cc1ccc(C(=O)Nc2ccc3c(c2)Sc2cccc(-c4cc(=O)cc(N5CCOCC5)o4)c2S3)cc1` [Compound 27], the IC50 was under 200 nM.

On to `O=C(Nc1ccc2c(c1)Sc1cccc(-c3cc(=O)cc(N4CCOCC4)o3)c1S2)c1cccnc1` [Compound 28], for which the IC50 was under 200 nM.

On to `O=C(Nc1ccc2c(c1)Sc1cccc(-c3cc(=O)cc(N4CCOCC4)o3)c1S2)c1ccco1` [Compound 29], for which the IC50 was under 200 nM.

On to `O=C(Nc1ccc2c(c1)Sc1cccc(-c3cc(=O)cc(N4CCOCC4)o3)c1S2)c1ccncc1` [Compound 30], for which the IC50 is under 200 nM.

`COc1ccccc1C(=O)Nc1ccc2c(c1)Sc1cccc(-c3cc(=O)cc(N4CCOCC4)o3)c1S2` [Compound 31]: the IC50 is under 200 nM.

In the case of `O=C(Nc1ccc2c(c1)Sc1cccc(-c3cc(=O)cc(N4CCOCC4)o3)c1S2)c1cccs1` [Compound 32], the IC50 is under 200 nM.

On to `O=C(Cc1cccs1)Nc1ccc2c(c1)Sc1cccc(-c3cc(=O)cc(N4CCOCC4)o3)c1S2` [Compound 33], for which the IC50 is under 200 nM.

Consider `O=C(Nc1ccc2c(c1)Sc1cccc(-c3cc(=O)cc(N4CCOCC4)o3)c1S2)C1CCC1` [Compound 34], for which the IC50 was under 200 nM.

For the compound `Cc1noc(C)c1C(=O)Nc1ccc2c(c1)Sc1cccc(-c3cc(=O)cc(N4CCOCC4)o3)c1S2` [Compound 35], the IC50 was under 200 nM.

For the compound `COC(=O)C(=O)Nc1ccc2c(c1)Sc1cccc(-c3cc(=O)cc(N4CCOCC4)o3)c1S2` [Compound 36], the IC50 is under 200 nM.

For `Cn1nc(O)cc1C(=O)Nc1ccc2c(c1)Sc1cccc(-c3cc(=O)cc(N4CCOCC4)o3)c1S2` [Compound 37], the IC50 is under 200 nM.

On to `CC(=O)N1CCC(C(=O)Nc2ccc3c(c2)Sc2cccc(-c4cc(=O)cc(N5CCOCC5)o4)c2S3)CC1` [Compound 38], for which the IC50 was under 200 nM.

In the case of `CC(=O)Oc1ccccc1C(=O)Nc1ccc2c(c1)Sc1cccc(-c3cc(=O)cc(N4CCOCC4)o3)c1S2` [Compound 39], the IC50 was under 200 nM.

Consider `COc1cc(C(=O)Nc2ccc3c(c2)Sc2cccc(-c4cc(=O)cc(N5CCOCC5)o4)c2S3)cc(OC)c1OC` [Compound 40], for which the IC50 is under 200 nM.

As to `COC(=O)CCC(=O)Nc1ccc2c(c1)Sc1cccc(-c3cc(=O)cc(N4CCOCC4)o3)c1S2` [Compound 41], the IC50 is under 200 nM.

`CC(=O)OCC(=O)Nc1ccc2c(c1)Sc1cccc(-c3cc(=O)cc(N4CCOCC4)o3)c1S2` [Compound 42]: the IC50 is under 200 nM.

For `CC(=O)OC(C(=O)Nc1ccc2c(c1)Sc1cccc(-c3cc(=O)cc(N4CCOCC4)o3)c1S2)c1ccccc1` (centres unmarked) [Compound 43], the IC50 was under 200 nM.

`O=C(Nc1ccc2c(c1)Sc1cccc(-c3cc(=O)cc(N4CCOCC4)o3)c1S2)c1ccc2nsnc2c1` [Compound 45]: the IC50 was under 200 nM.

For the compound `O=C(Nc1ccc2c(c1)Sc1cccc(-c3cc(=O)cc(N4CCOCC4)o3)c1S2)c1csc(-c2cccs2)n1` [Compound 46], the IC50 is under 200 nM.

Take `COCCOCC(=O)Nc1ccc2c(c1)Sc1cccc(-c3cc(=O)cc(N4CCOCC4)o3)c1S2` [Compound 48]: the IC50 is under 200 nM.

Take `O=C(CN1CCOCC1)Nc1ccc2c(c1)Sc1cccc(-c3cc(=O)cc(N4CCOCC4)o3)c1S2` [Compound 51]: the IC50 is under 200 nM.

In the case of `O=C(CN1CCCCC1)Nc1ccc2c(c1)Sc1cccc(-c3cc(=O)cc(N4CCOCC4)o3)c1S2` [Compound 52], the IC50 was under 200 nM.

Regarding `O=C(CN1CCNCC1)Nc1ccc2c(c1)Sc1cccc(-c3cc(=O)cc(N4CCOCC4)o3)c1S2` [Compound 53], the IC50 was under 200 nM.

Regarding `CN1CCN(CC(=O)Nc2ccc3c(c2)Sc2cccc(-c4cc(=O)cc(N5CCOCC5)o4)c2S3)CC1` [Compound 54], the IC50 is under 200 nM.

With `O=C(CN(CCO)CCO)Nc1ccc2c(c1)Sc1cccc(-c3cc(=O)cc(N4CCOCC4)o3)c1S2` [Compound 55], the IC50 is under 200 nM.

As to `COCCN(CCOC)CC(=O)Nc1ccc2c(c1)Sc1cccc(-c3cc(=O)cc(N4CCOCC4)o3)c1S2` [Compound 56], the IC50 is under 200 nM.

As for `O=C(CNCCO)Nc1ccc2c(c1)Sc1cccc(-c3cc(=O)cc(N4CCOCC4)o3)c1S2` [Compound 57], the IC50 was under 200 nM.

As to `NCCNCC(=O)Nc1ccc2c(c1)Sc1cccc(-c3cc(=O)cc(N4CCOCC4)o3)c1S2` [Compound 58], the IC50 was under 200 nM.

With `O=C(CN1CCCC1)Nc1ccc2c(c1)Sc1cccc(-c3cc(=O)cc(N4CCOCC4)o3)c1S2` [Compound 59], the IC50 was under 200 nM.

In the case of `CN1CCCN(CC(=O)Nc2ccc3c(c2)Sc2cccc(-c4cc(=O)cc(N5CCOCC5)o4)c2S3)CC1` [Compound 60], the IC50 is under 200 nM.

On to `O=C(CN1CCCNCC1)Nc1ccc2c(c1)Sc1cccc(-c3cc(=O)cc(N4CCOCC4)o3)c1S2` [Compound 61], for which the IC50 was under 200 nM.

Regarding `O=C(CN1CCCCCC1)Nc1ccc2c(c1)Sc1cccc(-c3cc(=O)cc(N4CCOCC4)o3)c1S2` [Compound 62], the IC50 is under 200 nM.

Turning to `O=C(CNCCCN1CCOCC1)Nc1ccc2c(c1)Sc1cccc(-c3cc(=O)cc(N4CCOCC4)o3)c1S2` [Compound 63], the IC50 is under 200 nM.

Consider `COc1ccc(CNCC(=O)Nc2ccc3c(c2)Sc2cccc(-c4cc(=O)cc(N5CCOCC5)o4)c2S3)cc1` [Compound 64], for which the IC50 is under 200 nM.

In the case of `O=C(CSc1ncn[nH]1)Nc1ccc2c(c1)Sc1cccc(-c3cc(=O)cc(N4CCOCC4)o3)c1S2` [Compound 65], the IC50 was under 200 nM.

Turning to `O=C(CNCC1CCCO1)Nc1ccc2c(c1)Sc1cccc(-c3cc(=O)cc(N4CCOCC4)o3)c1S2` (centres unmarked) [Compound 68], the IC50 is under 200 nM.

For `CN(C)CC(=O)Nc1ccc2c(c1)Sc1cccc(-c3cc(=O)cc(N4CCOCC4)o3)c1S2` [Compound 69], the IC50 is under 200 nM.
